# Source: EP1092438B1, “Pharmaceutical compositions containing growth-hormone inhibitors or their biologically active fragments for the treatment of uterine myomas” (De Leo, Vincenzo, priority 1999, dated 2006)
# Experiment: Routine blood parameters before and after treatment
# Type: in vivo
# Details: person
# Excerpt: TABLE 1 Example 1 (patient)
structure (smiles),measurement,value
CC(C)[C@@H]1NC(=O)[C@H](CCCCN)NC(=O)[C@@H](Cc2c[nH]c3ccccc23)NC(=O)[C@H](Cc2ccc(O)cc2)NC(=O)[C@@H](NC(=O)[C@H](N)Cc2ccc3ccccc3c2)CSSC[C@@H](C(=O)N[C@H](C(N)=O)[C@@H](C)O)NC1=O [Lanreotide],routine blood parameters,remained unvaried
